How the values were obtained:
[1] = target: T1, BLT1 (Cavia porcellus, UniProt H0VYV8); test: Saturation binding assay of ^3H-LTB4 and BLT1 with various concentrations of benzamidine; set-up: expressed in transfected cells; host or cells: HEK293 (membrane fraction); species or system guinea pig
Method: Each point (±s.e.m.) indicates the mean value of three independent experiments, each with triplicate reactions. […] Each point (±s.e.m.) indicates the mean value of three independent experiments, each with triplicate reactions. […] Each point (±s.e.m.) indicates the mean value of triplicate reactions. For the evaluation of the ligand-binding activity of the BLT1 mutants and BLT1-[…], a ^3H-LTB4 binding assay was performed using the BLT1-expressing membrane fractions of COS-7, HEK293, or P. pastoris cells, as described previously (Hori T. et al., 2010, supra; Hori T. et al., 2015, supra). For the evaluation of the thermostability, the membrane fraction was heat-treated before the ^3H-LTB4 binding assay.

[2] = target: T2, wild-type BLT1 (Cavia porcellus, UniProt H0VYV8); test: Competition binding assay of benzamidine and NaCl to 0.5 nM ^3H-LTB4 (allosteric modulation titration analysis); set-up: species or system guinea pig; settings: for logα / α: cooperative factor between ^3H-LTB4 and the modulator
T2 construct: expressed in transfected cells; host or cells: HEK293 (membrane fraction)
From the text: Each point (±s.e.m.) indicates the mean value of three independent experiments, each with triplicate reactions. […] Each point (±s.e.m.) indicates the mean value of three independent experiments, each with triplicate reactions. […] Each point (±s.e.m.) indicates the mean value of triplicate reactions. For the evaluation of the thermostabilities of guinea pig BLT1 mutants designed by the consensus method (FIG. 8A), point mutations were introduced using a QuikChange kit (Agilent) to the previously constructed thermostabilized BLT1 […] deleted, […] mutations, and an N-terminal FLAG-tag) in the pcDNA3 vector (Hori, T. et al., Protein Expr. Purif. 72 (2010) 66-74; Hori, T. et al., Biochem. Biophys. Rep. 4 (2015) 243-249). The expression vectors encoding the BLT1 mutants were transfected into COS-7 cells with Lipofectamine 2000. For the analysis of the BIIL260 binding residues of BLT1, point mutations were introduced, using the In-Fusion enzyme (Clontech), into the wild-type BLT1 cDNA with the N-terminal FLAG-tag in the pcDNA3 vector. The expression vectors were transfected into HEK293 cells, using polyethyleneimine. […] The BLT1 mutants were transiently expressed for three days at 37° C. The cells were washed with PBS, harvested with PBS-EDTA, disrupted with a sonicator, and centrifuged at 800×g for 5 min. The supernatant was further ultra-centrifuged at 100,000×g for 60 min, and the precipitate was collected. For the evaluation of the ligand-binding activity of the BLT1 mutants and BLT1-[…], a ^3H-LTB4 binding assay was performed using the BLT1-expressing membrane fractions of COS-7, HEK293, or P. pastoris cells, as described previously (Hori T. et al., 2010, supra; Hori T. et al., 2015, supra). For the evaluation of the thermostability, the membrane fraction was heat-treated before the ^3H-LTB4 binding assay. […] For all of the pharmacological analyses, nonlinear regression curve fitting was performed using Prism 5 (Graph Pad Software).

[3] = target: T1, BLT1; test: TGFα shedding assay with benzamidine (G-protein activation by LTB4); assay type: cell-based; set-up: expressed in transfected cells; settings: for logβ / β: LTB4-induced efficacy modulation by benzamidine
Method: Each point (±s.e.m.) indicates the mean value of three independent experiments, each with triplicate reactions. […] Each point (±s.e.m.) indicates the mean value of three independent experiments, each with triplicate reactions. […] Each point (±s.e.m.) indicates the mean value of triplicate reactions. […] To determine the parameters, three steps of fitting procedures were performed.

[4] = target: BLT1-T4L; test: Competition assay of ligands against ^3H-LTB4, BLT1-T4L expressed in P. pastoris; assay type: binding, guinea pig
From the text: For the ligand binding assay of BLT1-T4Ls, the T4L cDNA was integrated into the cDNA, encoding the newly generated thermostable BLT1 mutant with the additional mutation V212A, by the consensus method (residues 1-14 deleted and H83G/K88G/V212A/S309A mutations), with the α-factor PrePro signal sequence and the FLAG tag at the N-terminal, and the PreScission site and the His6 tag at the C-terminal of BLT1 (Hori T. et al., 2010, supra) in the pPIC3.5K vector, using the In-Fusion enzyme (FIG. 7A). The expression vectors were introduced into the yeast Pichia pastoris using an EasyComp kit (Thermo Fisher Scientific). BLT1-T4Ls were expressed in 10 ml cultures, and the membrane fraction was prepared as described previously (Hori T. et al., 2010, supra; Hon T. et al., 2015, supra).
For the evaluation of the ligand-binding activity of the BLT1 mutants and BLT1-T4Ls, a ^3H-LTB4 binding assay was performed using the BLT1-expressing membrane fractions of COS-7, HEK293, or P. pastoris cells, as described previously (Hori T. et al., 2010, supra; Hori T. et al., 2015, supra). For the evaluation of the thermostability, the membrane fraction was heat-treated before the ^3H-LTB4 binding assay.

[5] = saturation binding, global fitting

T1 sequence (H0VYV8 1-348): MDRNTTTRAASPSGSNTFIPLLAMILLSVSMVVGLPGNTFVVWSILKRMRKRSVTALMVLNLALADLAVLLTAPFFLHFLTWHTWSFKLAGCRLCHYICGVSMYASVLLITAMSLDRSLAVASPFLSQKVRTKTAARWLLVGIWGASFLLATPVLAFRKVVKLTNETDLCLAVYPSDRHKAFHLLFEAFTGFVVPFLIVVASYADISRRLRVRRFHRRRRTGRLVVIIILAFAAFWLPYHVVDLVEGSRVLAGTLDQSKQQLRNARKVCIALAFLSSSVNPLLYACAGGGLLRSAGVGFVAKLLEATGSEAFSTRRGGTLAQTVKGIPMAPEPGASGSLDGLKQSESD
T2 sequence (H0VYV8 1-348): as above

SMILES	binding affinity of LTB4 toward BLT1 ([1]; FIG. 3B)	logα [1, 5]	α [1, 5]	level of the LTB4-BLT1 binding ([2]; FIG. 3A)	suppression of the BLT1-LTB4 binding compared with the sodium ion ([2]; FIG. 3A)	logα [2]	α [2]	BLT1-LTB4-mediated Gq/il and G16 activation ([3]; FIGS. 3C and 3D)	logα ([3]; G16)	α ([3]; G16)	logβ ([3]; G16)	β ([3]; G16)	logα ([3]; Gq/i1)	α ([3]; Gq/i1)	logβ ([3]; Gq/i1)	β ([3]; Gq/i1)	cooperative factor of the LTB4-induced efficacy modulation (β) ([3]; as a whole)	cooperative factor of the binding of LTB4 to BLT1 (α) ([3]; as a whole (binding and shedding assays))	Ki [4] [µM]	logIC50 ([4]; log value (negative))
N=C(N)c1ccccc1 [Benzamidine, benzamidine]	lowered	−0.93	(α = 0.12)	decreased the level of the LTB4-BLT1 binding in a benzamidine concentration-dependent manner	more potently than the sodium ion, by one order of magnitude	−0.82	(α = 0.15)	decreased	−0.45	(α = 0.36)	−1.6	(β = 0.03)	0.00	(α = 1.00)	−1.9	(β = 0.01)	< 1	≤ 1		
[Cl-].[Na+] [NaCl]				decreased in a sodium ion concentration-dependent manner		−1.5	(α = 0.035)													
CCOC(=O)NC(=N)c1ccc(OCc2cccc(COc3ccc(C(C)(C)c4ccc(O)cc4)cc3)c2)cc1																			0.148	−6.7
